What was measured:
Type in all cases: cell-based, human
[1] = system: Class 1 resistant cell lines; assay: Transcriptional reporter assay (probasin-luciferase)
Procedure: With the exception of the LNCaP/AR(cs)-Luc cells that contain an integrated androgen responsive reporter, cells were transiently transfected using Lipofectin® (Life Technologies) according to the manufacturer's protocol. […] Following transfection, the cells were incubated for 4 hours.
Following 48 hour incubation the medium was removed and the cells were lysed in 40 μL of lysis buffer (25 mM Tris Phosphate, 2 mM CDTA, 10% Glycerol, 0.5% Triton X-100, 2 mM DTT).

LNCaP/AR-Luc cells = assay: Endogenous gene transcriptional assay (real-time PCR of androgen responsive genes); conditions: 1 nM R1881 or 30 μM compound, vehicle=1.00
Procedure: Total RNA was isolated using the Aurum™ total RNA isolation kit (BIO-RAD, Hercules, Calif.). RNA (1 μg) was reverse transcribed using the iScript cDNA synthesis kit (BIO-RAD, Hercules, Calif.) to produce cDNA. Real-time PCR was performed using the Applied Biosystems 7900HT instrument and SYBR Green PCR Master Mix (Applied Biosystems, Foster City, Calif.). PCR reactions were performed in 6 μL according to the manufacturer's protocol and a thermocycle protocol of 95° C. for 10 minutes followed by 40 cycles of 95° C. for 15 seconds and 58° C. for 1 minute. Androgen responsive gene (PSA, SLUG, TMPRSS2, STEAP4, FKBP5, ORM1, NOV, FASN, NKX3.1, AMIGO2, BDNF, CAMK2N1, HPGD, NCAPD3, PLD1) expression was normalized to GAPDH expression and expressed relative to vehicle treatment of the parental cell line.
Gene expression was normalized to GAPDH as described above.

LNCaP/AR(cs) cells = assay: as above

CNC(=O)c1ccc(N2C(=S)N(c3ccc(C#N)c(C(F)(F)F)c3)C(=O)C2(C)C)cc1F [Enzalutamide, enzalutamide]
Agonist Transcriptional Reporter Assay (% Max Activity) ([1]; Class 1, [Antagonists] = 50 μM): + (‘+’ = <5) | Antagonist Transcriptional Reporter Assay (% Max Activity) ([1]; Class 1, [Antagonists] = 50 μM in presence of R1881): + (‘+’ = <5) | Antagonist activity in probasin-luciferase reporter, Class 1 resistant cells ([1]; decrease in luciferase activity relative to no treatment controls): effective antagonists | AMIGO2 gene expression (LNCaP/AR-Luc cells): 1.44 | BDNF gene expression (LNCaP/AR-Luc cells): 1.08 | CAM2KN1 gene expression (LNCaP/AR-Luc cells): 1.51 | FASN gene expression (LNCaP/AR-Luc cells): 1.40 | FKBP5 gene expression (LNCaP/AR-Luc cells): 1.46 | HPGD gene expression (LNCaP/AR-Luc cells): 2.51 | NCAPD3 gene expression (LNCaP/AR-Luc cells): 1.33 | NKX3.1 gene expression (LNCaP/AR-Luc cells): 1.68 | ORM1 gene expression (LNCaP/AR-Luc cells): 1.39 | PLD1 gene expression (LNCaP/AR-Luc cells): 1.33 | PSA gene expression (LNCaP/AR-Luc cells): 0.44 | SLUG gene expression (LNCaP/AR-Luc cells): 2.73 | STEAP4 gene expression (LNCaP/AR-Luc cells): 1.23 | TMPRSS2 gene expression (LNCaP/AR-Luc cells): 1.35 | AMIGO2 expression, antagonist transcription (LNCaP/AR(cs) cells; +1 nM R1881, 0.3 μM): 0.49 | BDNF expression, antagonist transcription (LNCaP/AR(cs) cells; +1 nM R1881, 0.3 μM): 0.61 | CAM2KN1 expression, antagonist transcription (LNCaP/AR(cs) cells; +1 nM R1881, 0.3 μM): 0.04 | FASN expression, antagonist transcription (LNCaP/AR(cs) cells; +1 nM R1881, 0.3 μM): 1.30 | FKBP5 expression, antagonist transcription (LNCaP/AR(cs) cells; +1 nM R1881, 0.3 μM): 23.51 | HPGD expression, antagonist transcription (LNCaP/AR(cs) cells; +1 nM R1881, 0.3 μM): 99.16 | NCAPD3 expression, antagonist transcription (LNCaP/AR(cs) cells; +1 nM R1881, 0.3 μM): 23.74 | NKX3.1 expression, antagonist transcription (LNCaP/AR(cs) cells; +1 nM R1881, 0.3 μM): 7.70 | NOV expression, antagonist transcription (LNCaP/AR(cs) cells; +1 nM R1881, 0.3 μM): 0.11 | PLD1 expression, antagonist transcription (LNCaP/AR(cs) cells; +1 nM R1881, 0.3 μM): 0.02 | PSA expression, antagonist transcription (LNCaP/AR(cs) cells; +1 nM R1881, 0.3 μM): 22.76 | SLUG expression, antagonist transcription (LNCaP/AR(cs) cells; +1 nM R1881, 0.3 μM): 50.08 | STEAP4 expression, antagonist transcription (LNCaP/AR(cs) cells; +1 nM R1881, 0.3 μM): 585.81 | TMPRSS2 expression, antagonist transcription (LNCaP/AR(cs) cells; +1 nM R1881, 0.3 μM): 19.88 | AMIGO2 expression, antagonist transcription (LNCaP/AR(cs) cells; +1 nM R1881, 1 μM): 0.19 | BDNF expression, antagonist transcription (LNCaP/AR(cs) cells; +1 nM R1881, 1 μM): 0.28 | CAM2KN1 expression, antagonist transcription (LNCaP/AR(cs) cells; +1 nM R1881, 1 μM): 0.06 | FASN expression, antagonist transcription (LNCaP/AR(cs) cells; +1 nM R1881, 1 μM): 0.42 | FKBP5 expression, antagonist transcription (LNCaP/AR(cs) cells; +1 nM R1881, 1 μM): 5.64 | HPGD expression, antagonist transcription (LNCaP/AR(cs) cells; +1 nM R1881, 1 μM): 16.30 | NCAPD3 expression, antagonist transcription (LNCaP/AR(cs) cells; +1 nM R1881, 1 μM): 4.35 | NKX3.1 expression, antagonist transcription (LNCaP/AR(cs) cells; +1 nM R1881, 1 μM): 3.77 | NOV expression, antagonist transcription (LNCaP/AR(cs) cells; +1 nM R1881, 1 μM): 0.14 | PLD1 expression, antagonist transcription (LNCaP/AR(cs) cells; +1 nM R1881, 1 μM): 0.02 | PSA expression, antagonist transcription (LNCaP/AR(cs) cells; +1 nM R1881, 1 μM): 8.82 | SLUG expression, antagonist transcription (LNCaP/AR(cs) cells; +1 nM R1881, 1 μM): 10.20 | STEAP4 expression, antagonist transcription (LNCaP/AR(cs) cells; +1 nM R1881, 1 μM): 109.37 | TMPRSS2 expression, antagonist transcription (LNCaP/AR(cs) cells; +1 nM R1881, 1 μM): 7.72 | AMIGO2 expression, antagonist transcription (LNCaP/AR(cs) cells; +1 nM R1881, 3 μM): 0.48 | BDNF expression, antagonist transcription (LNCaP/AR(cs) cells; +1 nM R1881, 3 μM): 0.63 | CAM2KN1 expression, antagonist transcription (LNCaP/AR(cs) cells; +1 nM R1881, 3 μM): 0.27 | FASN expression, antagonist transcription (LNCaP/AR(cs) cells; +1 nM R1881, 3 μM): 0.71 | FKBP5 expression, antagonist transcription (LNCaP/AR(cs) cells; +1 nM R1881, 3 μM): 3.32 | HPGD expression, antagonist transcription (LNCaP/AR(cs) cells; +1 nM R1881, 3 μM): 13.19 | NCAPD3 expression, antagonist transcription (LNCaP/AR(cs) cells; +1 nM R1881, 3 μM): 3.14 | NKX3.1 expression, antagonist transcription (LNCaP/AR(cs) cells; +1 nM R1881, 3 μM): 6.72 | NOV expression, antagonist transcription (LNCaP/AR(cs) cells; +1 nM R1881, 3 μM): 0.61 | ORM1 expression, antagonist transcription (LNCaP/AR(cs) cells; +1 nM R1881, 3 μM): 257.85 | PLD1 expression, antagonist transcription (LNCaP/AR(cs) cells; +1 nM R1881, 3 μM): 0.13 | PSA expression, antagonist transcription (LNCaP/AR(cs) cells; +1 nM R1881, 3 μM): 11.75 | SLUG expression, antagonist transcription (LNCaP/AR(cs) cells; +1 nM R1881, 3 μM): 10.56 | STEAP4 expression, antagonist transcription (LNCaP/AR(cs) cells; +1 nM R1881, 3 μM): 74.44 | TMPRSS2 expression, antagonist transcription (LNCaP/AR(cs) cells; +1 nM R1881, 3 μM): 10.51 | AMIGO2 expression, antagonist transcription (LNCaP/AR(cs) cells; +1 nM R1881, 10 μM): 0.78 | BDNF expression, antagonist transcription (LNCaP/AR(cs) cells; +1 nM R1881, 10 μM): 0.99 | CAM2KN1 expression, antagonist transcription (LNCaP/AR(cs) cells; +1 nM R1881, 10 μM): 0.50 | FASN expression, antagonist transcription (LNCaP/AR(cs) cells; +1 nM R1881, 10 μM): 0.46 | FKBP5 expression, antagonist transcription (LNCaP/AR(cs) cells; +1 nM R1881, 10 μM): 1.41 | NKX3.1 expression, antagonist transcription (LNCaP/AR(cs) cells; +1 nM R1881, 10 μM): 4.70 | NOV expression, antagonist transcription (LNCaP/AR(cs) cells; +1 nM R1881, 10 μM): 1.00 | ORM1 expression, antagonist transcription (LNCaP/AR(cs) cells; +1 nM R1881, 10 μM): 43.91 | PLD1 expression, antagonist transcription (LNCaP/AR(cs) cells; +1 nM R1881, 10 μM): 0.42 | PSA expression, antagonist transcription (LNCaP/AR(cs) cells; +1 nM R1881, 10 μM): 6.59 | SLUG expression, antagonist transcription (LNCaP/AR(cs) cells; +1 nM R1881, 10 μM): 5.26 | STEAP4 expression, antagonist transcription (LNCaP/AR(cs) cells; +1 nM R1881, 10 μM): 13.61 | TMPRSS2 expression, antagonist transcription (LNCaP/AR(cs) cells; +1 nM R1881, 10 μM): 3.58 | AMIGO2 expression, antagonist transcription (LNCaP/AR(cs) cells; +1 nM R1881, 30 μM): 0.92 | BDNF expression, antagonist transcription (LNCaP/AR(cs) cells; +1 nM R1881, 30 μM): 1.12 | CAM2KN1 expression, antagonist transcription (LNCaP/AR(cs) cells; +1 nM R1881, 30 μM): 0.56 | FASN expression, antagonist transcription (LNCaP/AR(cs) cells; +1 nM R1881, 30 μM): 0.59 | FKBP5 expression, antagonist transcription (LNCaP/AR(cs) cells; +1 nM R1881, 30 μM): 1.50 | HPGD expression, antagonist transcription (LNCaP/AR(cs) cells; +1 nM R1881, 30 μM): 4.25 | NKX3.1 expression, antagonist transcription (LNCaP/AR(cs) cells; +1 nM R1881, 30 μM): 5.03 | NOV expression, antagonist transcription (LNCaP/AR(cs) cells; +1 nM R1881, 30 μM): 0.92
